# Where two headings read alike, the source gives them in different places.
# How the values were obtained:
# [1] = test system: MCF-7 cells; set-up: method as in PMID 23979834; conditions: read-out: cytotoxic activity; cited from earlier work
# [2] = test system: HeLa cells; set-up: method as in PMID 23979834; conditions: read-out: cytotoxic activity; cited from earlier work
# [3] = test system: MCF-7 cells; set-up: method as in PMID 26584913; conditions: cited from earlier work
# [4] = test system: HeLa cells; assay: MTT antiproliferative assay, HeLa; assay type: cell-based, human; conditions: 72 h; for IC50: read-out: Calculated IC50 Value; for inhibition at 10 µM / inhibition at 30 µM: read-out: Growth Inhibition (%) ± SEM
# Method: (§1) The isolated phenanthrenes (Compounds 1–9) were tested for their antiproliferative activity against three human tumor cell lines (HeLa and SiHa (cervix adenocarcinoma) and A2780 (ovarian carcinoma)) using the 3-(4,5-dimethylthiazol-2-yl)-2,5-diphenyltetrazolium bromide (MTT) test with cisplatin as a positive control (Table 3). […] Based on the presented results, some structure-activity relationships could be obtained. […] Compounds bearing free hydroxy groups (in case of Compound 3) exerted more pronounced action than its methyl ether (Compound 7) or its oxymethylene derivative (Compound 6). The substantial difference in the activities of the isolated dimers (Compounds 2 and 8) could be attributed to the presence of a methyl group at C-6, which is favored in the monomers, too. Both the other cell lines were substantially less sensitive. […] Similarly, none of the presented agents elicited substantial (>40%) inhibition of the cell cancer proliferation during the applied 72 h of incubation against SiHa cells at 10 μM, and therefore, IC50 values were not determined.
# (§2) The antiproliferative properties of the isolated phenanthrenes were determined on a panel of human malignant cell lines isolated from cervical (HeLa and SiHa) and ovarian cancers (A2780) purchased from the European Collection of Cell Cultures (ECCAC, Salisbury, UK). Cells were cultivated in minimal essential medium supplemented with 10% fetal bovine serum, 1% non-essential amino acids and an antibiotic-antimycotic mixture. All media and supplements were obtained from Lonza Group Ltd., (Basel, Switzerland). Near-confluent cancer cells were seeded onto a 96-well microplate (5000 cells/well) and after an overnight standing, medium containing the tested compounds at 10 and 30 µM was added. After incubation for 72 h under cell culture conditions, the living cells were assayed by the addition of 20 µL of 5 mg/mL 3-(4,5-dimethylthiazol-2-yl)-2,5-diphenyltetrazolium bromide (MTT) solution. MTT was converted by intact mitochondrial enzymes and precipitated as purple crystals during a 4 h contact period. The medium was then removed and the formazan was dissolved in 100 µL of DMSO during a 60 min period of shaking at 37 °C. Finally, the reduced MTT was assayed at 545 nm using a microplate reader. […] All in vitro experiments were carried out on two microplates with five parallel wells. Stock solutions of the tested compounds (10 mM) were prepared in DMSO. […] Cisplatin (Ebewe Pharma GmbH, Unterach, Austria) was used as a reference agent.
# [5] = test system: SiHa cells; assay: MTT antiproliferative assay, SiHa; assay type: cell-based, human; conditions: 72 h; for inhibition at 10 µM / inhibition at 30 µM: Homo sapiens, read-out: Growth Inhibition (%) ± SEM
# Method: as §1, §2
# [6] = test system: A2780 cells; assay: MTT antiproliferative assay, A2780; assay type: cell-based, human; conditions: for IC50: read-out: Calculated IC50 Value; for inhibition at 10 µM / inhibition at 30 µM: read-out: Growth Inhibition (%) ± SEM
# Method: as §1, §2
# [7] = test system: HepG2 (liver hepatocellular carcinoma); set-up: method as in PMID 26584913; conditions: cited from earlier work
# [8] = test system: HeLa cells; set-up: method as in PMID 26584913; conditions: cited from earlier work
# [9] = test system: HSV-2; set-up: method as in PMID 11463529; conditions: 6.25 µM; cited from earlier work
# [10] = test system: HepG2; set-up: method as in PMID 26072042; conditions: HepG2, CCK-8 assay; cited from earlier work
# [11] = test system: MCF-7; set-up: method as in PMID 26072042; conditions: MCF-7, CCK-8 assay; cited from earlier work
# [12] = test system: SMMC-7721; set-up: method as in PMID 26072042; conditions: SMMC-7721, CCK-8 assay; cited from earlier work
# [13] = Homo sapiens, A2780, 10 μM, 72 h, MTT
# [14] = Homo sapiens, A2780, 30 μM, 72 h, MTT
SMILES,"inhibition at 10 µM ([4]; Homo sapiens, 10 μM, MTT) [%]","inhibition at 30 µM ([4]; Homo sapiens, 30 μM, MTT) [%]","IC50 ([4]; Homo sapiens, MTT) [µM]","inhibition at 10 µM ([5]; 10 μM, MTT) [%]","inhibition at 30 µM ([5]; 30 μM, MTT) [%]","inhibition at 10 µM [6, 13] [%]","inhibition at 30 µM [6, 14] [%]",other results
"Cc1c(O)ccc2c1CCc1cc(O)cc(C=O)c1-2 [2,7-dihydroxy-1-methyl-5-aldehyde-9,10-dihydrophenanthrene]",,,,,,,,IC50 [1]: 9.17 µM; IC50 [2]: 19.6 µM
"COC(C)c1cc(O)cc2ccc3c(C)c(O)ccc3c12 (stereo not drawn) [5-(1-methoxyethyl)-1-methyl-phenanthren-2,7-diol]",,,,,,,,IC50 [3]: 10.9 µM
"N.N.[Cl][Pt][Cl] [Cisplatin, reference compound]",,,,,,,,"Growth Inhibition (%) ± SEM ([4]; 10 μM, MTT): 42.61 ± 2.33%; Growth Inhibition (%) ± SEM ([4]; 30 μM, MTT): 99.93 ± 0.26%; IC50 ([4]; MTT): 12.4 µM; Growth Inhibition (%) ± SEM ([5]; 10 μM, MTT): 88.64 ± 0.50%; Growth Inhibition (%) ± SEM ([5]; 30 μM, MTT): 90.18 ± 7.78%; IC50 ([5]; MTT, read-out: Calculated IC50 Value): 7.84 µM; Growth Inhibition (%) ± SEM ([6]; A2780, 10 μM, 72 h, MTT): 83.57 ± 1.21%; Growth Inhibition (%) ± SEM ([6]; A2780, 30 μM, 72 h, MTT): 95.02 ± 0.28%; IC50 ([6]; A2780, 72 h, MTT): 1.3 µM"
"C=Cc1c(C)c(O)cc2c1-c1ccc(OC)c(C)c1CC2 [Compound 1, compressin A]",41.7 ± 1.1,93.73 ± 0.36,11.3,< 10,38.6 ± 0.78,47.6 ± 1.58,73 ± 0.47,"IC50 ([6]; Homo sapiens, A2780, 72 h, MTT): 13.2 µM"
"C=Cc1c(C)c(O)cc2c1-c1cc(-c3cc4c(c(C)c3O)CCc3cc(O)c(C)c(C=C)c3-4)c(O)c(C)c1CC2 [Compound 2, compressin B]",92.03 ± 0.44,92.38 ± 0.15,1.86,< 10,32.8 ± 0.88,< 10,64.8 ± 1.95,
"C=Cc1cc(O)cc2c1-c1ccc(O)c(C)c1CC2 [Compound 3, effusol]",96.37 ± 0.28,97.77 ± 0.27,3.68,< 10,< 10,< 10,50.5 ± 1.59,
"COC(C)c1cc(O)cc2c1-c1ccc(O)c(C)c1CC2 (stereo not drawn) [Compound 4, effususol]",< 10,30.4 ± 1.91,,< 10,14.2 ± 2.75,18.3 ± 0.42,72 ± 1.06,
"C=Cc1cc(CO)cc2c1-c1ccc(O)c(C)c1CC2 [Compound 6, 2-hydroxy-1-methyl-7-oxymethylene-5-vinyl-9,10-dihydrophenanthrene]",96.8 ± 0.28,98.77 ± 0.24,4.17,< 10,10.2 ± 1.47,< 10,< 10,
"C=Cc1cc(O)cc2c1-c1ccc(OC)c(C)c1CC2 [Compound 7, 7-hydroxy-1-methyl-2-methoxy-5-vinyl-9,10-dihydrophenanthrene]",45.4 ± 1.57,92.36 ± 0.23,10.7,14.2 ± 0.98,29.5 ± 3.36,< 10,63.2 ± 2.54,
"C=Cc1cc(O)cc2c1-c1cc(-c3cc4c(c(C)c3O)CCc3cc(O)cc(C=C)c3-4)c(O)c(C)c1CC2 [Compound 8, effususin A]",< 10,10.4 ± 0.47,,< 10,14.4 ± 1.48,< 10,72.7 ± 1.82,
"C=Cc1cc(O)cc2ccc3c(C)c(O)ccc3c12 [Compound 9, dehydroeffusol]",,,,,,,,"IC50 ([4]; Homo sapiens): 7.75 µM; inhibition at 10 µM ([4]; Homo sapiens): 75.2 ± 2.48%; inhibition at 30 µM ([4]; Homo sapiens): 96.5 ± 0.32%; inhibition at 10 µM [5]: < 10%; inhibition at 30 µM [5]: 28.7 ± 2.01%; inhibition at 10 µM ([6]; Homo sapiens, A2780, 72 h): < 10%; inhibition at 30 µM ([6]; Homo sapiens, A2780, 72 h): 57.3 ± 2.58%"
Cc1c(O)ccc2c1ccc1cc(O)cc(C=O)c12 [Dehydroeffusal],,,,,,,,IC50 [7]: 12.4 µM; IC50 [8]: 13.1 µM
Nc1nc2c(ncn2COCCO)c(=O)[nH]1 [acyclovir],,,,,,,,reduction of HSV-2 yield [9]: 1–5.06 log10
"COc1cccc2c1C(=O)c1c(O)c3c(c(O)c1C2=O)C[C@@](O)(C(=O)CO)C[C@@H]3O[C@H]1C[C@H](N)[C@H](O)[C@H](C)O1 [adriamycin, reference compound]",,,,,,,,IC50 [1]: 0.406 µM; IC50 [2]: 0.539 µM
C=Cc1cc(O)cc2c1-c1cc(-c3c(O)cc(C=C)c4c3ccc3c(C)c(O)ccc34)c(O)c(C)c1CC2 [effususin B],,,,,,,,IC50 [10]: 12.9 µM; IC50 [11]: 12.5 µM; IC50 [12]: 13.6 µM
"CC(=O)O[C@H]1C(=O)[C@@]2(C)[C@H]([C@H](OC(=O)c3ccccc3)[C@]3(O)C[C@H](OC(=O)[C@H](O)[C@@H](NC(=O)c4ccccc4)c4ccccc4)C(C)=C1C3(C)C)[C@]1(OC(C)=O)CO[C@@H]1C[C@@H]2O [paclitaxel, reference compound]",,,,,,,,IC50 [10]: 36.8 µM; IC50 [11]: 28.6 µM; IC50 [12]: 0.09 µM
